Molecular target: T1, mTOR (Homo sapiens, UniProt P42345)
T1 construct: FLAG; made in house
Test: In Vitro mTOR Kinase Assay (Echo), Test (a)(ii)
Assay type: biochemical
Conditions: read-out: mTOR Kinase Assay (Echo)
Method in brief: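 AlphaScreen read-out: biotinylated substrate phosphorylation was detected with anti-p70 S6K (T389) 1A5 antibody, Protein A acceptor and streptavidin donor beads after overnight dark incubation at room temperature. Enzyme was FLAG-mTOR 1362-2549 from stable HEK293 cells.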

T1 sequence (P42345 1362-2549): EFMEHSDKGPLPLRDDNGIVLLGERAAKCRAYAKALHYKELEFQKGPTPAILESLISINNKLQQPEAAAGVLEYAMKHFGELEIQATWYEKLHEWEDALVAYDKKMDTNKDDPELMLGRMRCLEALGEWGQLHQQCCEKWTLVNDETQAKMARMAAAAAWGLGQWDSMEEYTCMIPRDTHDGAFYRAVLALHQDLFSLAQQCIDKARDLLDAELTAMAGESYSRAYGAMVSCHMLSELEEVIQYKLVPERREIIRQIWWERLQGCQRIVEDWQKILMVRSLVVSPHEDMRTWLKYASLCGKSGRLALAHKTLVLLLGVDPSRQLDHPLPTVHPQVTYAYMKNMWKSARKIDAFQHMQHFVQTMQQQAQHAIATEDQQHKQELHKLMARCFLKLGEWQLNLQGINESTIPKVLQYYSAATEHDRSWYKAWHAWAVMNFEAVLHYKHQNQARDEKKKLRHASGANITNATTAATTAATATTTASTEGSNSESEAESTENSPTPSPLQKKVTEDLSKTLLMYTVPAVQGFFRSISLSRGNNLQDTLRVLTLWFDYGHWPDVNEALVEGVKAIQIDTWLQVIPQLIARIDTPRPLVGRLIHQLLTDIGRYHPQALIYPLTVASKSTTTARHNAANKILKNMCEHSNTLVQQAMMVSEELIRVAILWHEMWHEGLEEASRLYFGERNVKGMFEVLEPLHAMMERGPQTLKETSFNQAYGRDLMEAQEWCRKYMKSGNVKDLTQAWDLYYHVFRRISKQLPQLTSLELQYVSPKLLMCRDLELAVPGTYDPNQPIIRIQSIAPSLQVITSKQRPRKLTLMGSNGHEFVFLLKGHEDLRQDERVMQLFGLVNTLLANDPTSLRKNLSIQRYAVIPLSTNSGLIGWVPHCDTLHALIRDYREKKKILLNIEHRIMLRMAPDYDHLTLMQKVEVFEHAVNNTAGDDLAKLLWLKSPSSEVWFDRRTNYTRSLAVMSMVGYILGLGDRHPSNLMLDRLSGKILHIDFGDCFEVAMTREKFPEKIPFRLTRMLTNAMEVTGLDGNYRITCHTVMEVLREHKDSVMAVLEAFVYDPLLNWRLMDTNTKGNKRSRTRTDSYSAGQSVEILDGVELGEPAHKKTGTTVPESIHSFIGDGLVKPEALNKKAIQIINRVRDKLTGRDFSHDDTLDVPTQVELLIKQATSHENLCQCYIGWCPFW

IC50 | Compound
29.4 nM | CCS(=O)(=O)C1(c2cc(N3CCOC[C@@H]3C)nc(-c3ccc(NC(=O)NCC(C)C)cc3)n2)CC1 [Example 11i, 1-[4-[4-(1-ethylsulfonylcyclopropyl)-6-[(3S)-3-methylmorpholin-4-yl]pyrimidin-2-yl]phenyl]-3-(2-methylpropyl)urea]
1.21 nM | C[C@H]1COCCN1c1cc(C2(S(C)(=O)=O)CC2)nc(-c2ccc(NC(=O)NC3CCC3)cc2)n1 [Example 2c, 3-cyclobutyl-1-[4-[4-[(3S)-3-methylmorpholin-4-yl]-6-(1-methylsulfonylcyclopropyl)pyrimidin-2-yl]phenyl]urea]

Further lines, the compound ahead of its results:

Compound | IC50
CCS(=O)(=O)C1(c2cc(N3CCOC[C@@H]3C)nc(-c3ccc(NC(=O)Nc4ccccn4)cc3)n2)CC1 [Example 11l, 1-[4-[4-(1-ethylsulfonylcyclopropyl)-6-[(3S)-3-methylmorpholin-4-yl]pyrimidin-2-yl]phenyl]-3-pyridin-2-yl-urea] | 3.56 nM
CC(C)CNC(=O)Nc1ccc(-c2nc(N3CCOC[C@@H]3C)cc(C3(S(=O)(=O)c4ccc(F)cc4)CC3)n2)cc1 [Example 8i, 1-[4-[4-[1-(4-fluorophenyl)sulfonylcyclopropyl]-6-[(3S)-3-methylmorpholin-4-yl]pyrimidin-2-yl]phenyl]-3-(2-methylpropyl)urea] | 19.8 nM
CCNC(=O)Nc1ccc(-c2nc(N3CCOC[C@@H]3C)cc(C3(S(=O)(=O)c4ccccc4C(F)(F)F)CC3)n2)cc1 [Example 10e, 1-ethyl-3-[4-[4-[(3S)-3-methylmorpholin-4-yl]-6-[1-[2-(trifluoromethyl)phenyl]sulfonylcyclopropyl]pyrimidin-2-yl]phenyl]urea] | 6.91 nM

Same assay, conditions: table of enzyme assay Test (a)(ii); read-out: Test (a)(ii) IC50

IC50 | Compound
0.591 nM | CCNC(=O)Nc1ccc(-c2nc(N3CCOC[C@@H]3C)cc(C3(S(=O)(=O)CCO)CC3)n2)cc1 [Example 15a, 3-ethyl-1-[4-[4-[1-(2-hydroxyethylsulfonyl)cyclopropyl]-6-[(3S)-3-methylmorpholin-4-yl]pyrimidin-2-yl]phenyl]urea]
16.3 nM | CNC(=O)Nc1ccc(-c2nc(N3CCOC[C@@H]3C)cc(C3(S(C)(=O)=O)CCNCC3)n2)cc1 [Example 20a, 3-methyl-1-[4-[4-[(3S)-3-methylmorpholin-4-yl]-6-(4-methylsulfonylpiperidin-4-yl)pyrimidin-2-yl]phenyl]urea]
310 nM | CNC(=O)Nc1ccc(-c2nc(N3CCOC[C@@H]3C)cc(C3(S(=O)(=O)CCCO)CCOCC3)n2)cc1 [Example 36ca, 1-[4-[4-[4-(3-hydroxypropylsulfonyl)oxan-4-yl]-6-[(3S)-3-methylmorpholin-4-yl]pyrimidin-2-yl]phenyl]-3-methylurea]
7.61 nM | C[C@@H](CO)NC(=O)Nc1ccc(-c2nc(N3CCOC[C@@H]3C)cc(C3(S(=O)(=O)C4CC4)CCC3)n2)cc1 [Example 64x, 1-[4-[4-(1-cyclopropylsulfonylcyclobutyl)-6-[(3S)-3-methylmorpholin-4-yl]pyrimidin-2-yl]phenyl]-3-[(2S)-1-hydroxypropan-2-yl]urea]
10.1 nM | C[C@H]1COCCN1c1cc(C2(S(=O)(=O)CCO)CC2)nc(-c2ccc(NC(=O)NC3CCC3)cc2)n1 [Example 16a, 3-cyclobutyl-1-[4-[4-[1-(2-hydroxyethylsulfonyl)cyclopropyl]-6-[(3S)-3-methylmorpholin-4-yl]pyrimidin-2-yl]phenyl]urea]
2.78 nM | C[C@H]1COCCN1c1cc(C2(S(=O)(=O)C3CC3)CCC2)nc(-c2ccc(NC(=O)NCCO)cc2)n1 [Example 36f, 1-[4-[4-(1-cyclopropylsulfonylcyclobutyl)-6-[(3S)-3-methylmorpholin-4-yl]pyrimidin-2-yl]phenyl]-3-(2-hydroxyethyl)urea]
5.46 nM | C[C@@H](CO)NC(=S)Nc1ccc(-c2nc(N3CCOC[C@@H]3C)cc(C3(S(C)(=O)=O)CCC3)n2)cc1 [Example 62b, 3-[(2S)-1-hydroxypropan-2-yl]-1-[4-[4-[(3S)-3-methylmorpholin-4-yl]-6-(1-methylsulfonylcyclobutyl)pyrimi-din-2-yl]phenyl]thiourea]
1.86 nM | C[C@H]1COCCN1c1cc(C2(S(C)(=O)=O)CC2)nc(-c2ccc(NC(=O)NC3CCC3)cc2)n1 [Example 2c, 3-cyclobutyl-1-[4-[4-[(3S)-3-methylmorpholin-4-yl]-6-(1-methylsulfonylcyclopropyl)pyrimidin-2-yl]phenyl]urea]

More lines, now with the values behind:

Compound | IC50
C[C@H]1COCCN1c1cc(C2(S(=O)(=O)c3ccc(F)cc3)CC2)nc(-c2cnc(NC(=O)NC3CC3)nc2)n1 [Example 14e, 3-cyclopropyl-1-[5-[4-[1-(4-fluorophenyl)sulfonylcyclopro-pyl]-6-[(3S)-3-methylmorpholin-4-yl]pyrimidin-2-yl]pyrimidin-2-yl]urea] | 110 nM
C[C@H]1COCCN1c1cc(C2(S(=O)(=O)c3cc(F)cc(F)c3)CC2)nc(-c2ccc(NC(=O)NC3CCC3)cc2)n1 [Example 19a, 3-cyclobutyl-1-[4-[4-[1-(3,5-difluorophenyl)sulfonylcyclopro-pyl]-6-[(3S)-3-methylmorpholin-4-yl]pyrimidin-2-yl]phenyl]urea] | 4.25 nM
Cc1noc(C)c1S(=O)(=O)C1(c2cc(N3CCOC[C@@H]3C)nc(-c3ccc(NC(=O)NCCO)cc3)n2)CC1 [Example 59b, 1-[4-[4-[1-[(3,5-dimethyl-1,2-oxazol-4-yl)sulfonyl]cyclopropyl]-6-[(3S)-3-methylmorpholin-4-yl]pyrimidin-2-yl]phenyl]-3-(2-hydroxyethyl)urea] | 9.93 nM
O=C(NCCCO)Nc1ccc(-c2nc(N3CCOCC3)cc(C3(S(=O)(=O)c4ccncc4)CC3)n2)cc1 [Example 36ax, 3-(3-hydroxypropyl)-1-[4-[4-morpholin-4-yl-6-(1-pyridin-4-ylsulfonylcyclopropyl)pyrimidin-2-yl]phenyl]urea] | 21.1 nM
C[C@H]1COCCN1c1cc(C2(S(=O)(=O)CCCO)CC2)nc(-c2ccc(NC(=O)NCCS(C)(=O)=O)cc2)n1 [Example 36cq, 1-[4-[4-[1-(3-hydroxypropylsulfonyl)cyclopropyl]-6-[(3S)-3-methylmorpholin-4-yl]pyrimidin-2-yl]phenyl]-3-(2-methylsulfonylethyl)urea] | 114 nM
Cc1ccccc1S(=O)(=O)C1(c2cc(N3CCOC[C@@H]3C)nc(-c3ccc(NC(=O)NC4CC4)cc3)n2)CC1 [Example 54a, 3-cyclopropyl-1-[4-[4-[(3S)-3-methylmorpholin-4-yl]-6-[1-(2-methylphenyl)sulfonylcyclo-propyl]pyrimidin-2-yl]phenyl]urea] | 9.18 nM
C[C@H]1COCCN1c1cc(C2(S(=O)(=O)c3ccncc3)CC2)nc(-c2ccc(NC(=S)NC3CC3)cc2)n1 [Example 37ae, 3-cyclopropyl-1-[4-[4-[(3S)-3-methylmorpholin-4-yl]-6-(1-pyridin-4-ylsulfonylcyclopropyl)pyrimidin-2-yl]phenyl]thiourea] | 9.52 nM
C[C@H]1COCCN1c1cc(C2(S(=O)(=O)c3ccccc3)CC2)nc(-c2ccc(NC(=O)Nc3cnn(C)c3)cc2)n1 [Example 36br, 1-[4-[4-[1-(benzenesulfonyl)cyclopropyl]-6-[(3S)-3-methylmorpholin-4-yl]pyrimidin-2-yl]phenyl]-3-(1-methylpyrazol-4-yl)urea] | 1.88 nM
O=C(NCCO)Nc1ccc(-c2nc(N3CCOCC3)cc(C3(S(=O)(=O)c4ccccc4)CC3)n2)cc1 [Example 36de, 1-[4-[4-[1-(benzenesulfonyl)cyclopropyl]-6-morpholin-4-ylpyrimidin-2-yl]phenyl]-3-(2-hydroxyethyl)urea] | 3.89 nM
C[C@H]1COCCN1c1cc(C2(S(=O)(=O)c3ccc(F)cc3F)CC2)nc(-c2ccc(NC(=O)NCC3(O)CC3)cc2)n1 [Example 57g, 1-[4-[4-[1-(2,4-difluorophenyl)sulfonylcyclopro-pyl]-6-[(3S)-3-methylmorpholin-4-yl]pyrimidin-2-yl]phenyl]-3-[(1-hydroxycyclopropyl)methyl]urea] | 58.5 nM
O=C(Nc1ccc(-c2nc(N3CCOCC3)cc(C3(S(=O)(=O)C4CC4)CCCC3)n2)cc1)NC1CC1 [Example 13j, 3-cyclopropyl-1-[4-[4-(1-cyclopropylsulfonylcyclopentyl)-6-morpholin-4-ylpyrimidin-2-yl]phenyl]urea] | 17.8 nM
C[C@H]1COCCN1c1cc(C2(S(=O)(=O)C3CCCCC3)CC2)nc(-c2ccc(NC(=O)NCCCO)cc2)n1 [Example 26g, 1-[4-[4-(1-cyclohexylsulfonylcyclopropyl)-6-[(3S)-3-methylmorpholin-4-yl]pyrimidin-2-yl]phenyl]-3-(3-hydroxypropyl)urea] | 7.46 nM
C[C@H]1COCCN1c1cc(C2(S(=O)(=O)c3c(F)cccc3F)CC2)nc(-c2ccc(NC(=O)NCC(F)F)cc2)n1 [Example 86e, 3-(2,2-difluoroethyl)-1-[4-[4-[1-(2,6-difluorophenyl)sulfonylcyclopropyl]-6-[(3S)-3-methylmorpholin-4-yl]pyrimidin-2-yl]phenyl]urea] | 2.23 nM
CNC(=O)Nc1ccc(-c2nc(N3CCOCC3)cc(C3(S(=O)(=O)c4ccc(F)cc4)CC3)n2)cc1 [Example 36ap, 3-[4-[4-[1-(4-fluorophenyl)sulfonylcyclopropyl]-6-morpholin-4-ylpyrimidin-2-yl]phenyl]-1-methylurea] | 15.6 nM
C[C@H]1COCCN1c1cc(C2(S(=O)(=O)c3ccc(Cl)cc3)CC2)nc(-c2ccc(NC(=O)Nc3ccc(C(F)(F)F)cc3)cc2)n1 [Example 27j, 1-[4-[4-[1-(4-chlorophenyl)sulfonylcyclopropyl]-6-[(3S)-3-methylmorpholin-4-yl]pyrimidin-2-yl]phenyl]-3-[4-(trifluoromethyl)phenyl]urea] | 7.61 nM
CNC(=O)Nc1ccc(-c2nc(N3CCOCC3)cc(C3(C(=O)N(C)C)CC3)n2)cc1 [Example 32, N,N-Dimethyl-1-[2-[4-(methylcarbamoylamino)phenyl]-6-morpholin-4-ylpyrimidin-4-yl]cyclopropane-1-carboxamide] | 3.15 nM
C[C@H]1COCCN1c1cc(C2(S(=O)(=O)C(C)(C)C)CC2)nc(-c2ccc(NC(=O)NC(C)(C)CO)cc2)n1 [Example 18k, 1-[4-[4-(1-tert-butylsulfonylcyclopropyl)-6-[(3S)-3-methylmorpholin-4-yl]pyrimidin-2-yl]phenyl]-3-(1-hydroxy-2-methylpropan-2-yl)urea] | 11.3 nM
